# Read-outs that look alike come from different tables or passages of the source.
# Assays:
# Assay type in all cases: cell-based
# [1] = molecular target: T1, alpha 2B receptor (Homo sapiens, UniProt P18089); assay: RSAT assay (Receptor Selection and Amplification Technology), Alpha 2B; settings: for Intrinsic Activity efficacy Alpha 2B: value in parentheses, ratio of maximal effect to that of brimonidine
# T1 construct: expressed in transfected cells; host or cells: NIH-3T3
# T1 sequence (P18089 1-450): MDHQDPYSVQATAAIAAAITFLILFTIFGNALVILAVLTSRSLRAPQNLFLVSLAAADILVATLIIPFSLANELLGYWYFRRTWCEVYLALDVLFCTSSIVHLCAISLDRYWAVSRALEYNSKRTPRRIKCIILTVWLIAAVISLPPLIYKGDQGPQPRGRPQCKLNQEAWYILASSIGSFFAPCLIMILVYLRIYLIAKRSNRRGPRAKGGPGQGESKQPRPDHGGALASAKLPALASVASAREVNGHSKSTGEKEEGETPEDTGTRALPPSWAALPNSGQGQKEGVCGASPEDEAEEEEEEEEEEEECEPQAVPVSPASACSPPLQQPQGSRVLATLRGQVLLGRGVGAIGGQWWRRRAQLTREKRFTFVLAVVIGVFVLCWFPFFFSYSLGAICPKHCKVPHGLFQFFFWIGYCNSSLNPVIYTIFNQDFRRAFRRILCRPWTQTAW
# Protocol: (§1) The RSAT assay measures a receptor-mediated loss of contact inhibition that results in selective proliferation of receptor-containing cells in a mixed population of confluent cells. The increase in cell number is assessed with an appropriate transfected marker gene such as β-galactosidase, the activity of which can be easily measured in a 96-well format. Receptors that activate the G protein, Gq, elicit this response. Alpha 2 receptors, which normally couple to Gi, activate the RSAT response when coexpressed with a hybrid Gq protein that has a Gi receptor recognition domain, called Gq/i5.
# (§2) NIH-3T3 cells are plated at a density of 2×10^6 cells in 15 cm dishes and maintained in Dulbecco's modified Eagle's medium supplemented with 10% calf serum. One day later, cells are cotransfected by calcium phosphate precipitation with mammalian expression plasmids encoding p-SV-β-galactosidase (5-10 μg), receptor (1-2 μg) and G protein (1-2 μg). 40 μg salmon sperm DNA may also be included in the transfection mixture. […] Cells are thawed and 100 μl added to 100 μL aliquots of various concentrations of drugs in triplicate in 96-well dishes. Incubations continue 72-96 hr at 37° C. After washing with phosphate-buffered saline, β-galactosidase enzyme activity is determined by adding 200 μL of the chromogenic substrate (consisting of 3.5 mM o-nitrophenyl-β-D-galactopyranoside and 0.5% nonidet P-40 in phosphate buffered saline), incubating overnight at 30° C. and measuring optical density at 420 nm. The absorbance is a measure of enzyme activity, which depends on cell number and reflects a receptor-mediated cell proliferation. The efficacy or intrinsic activity is calculated as a ratio of the maximal effect of the drug to the maximal effect of a standard full agonist for each receptor subtype. Brimonidine, the chemical structure of which is shown below, is used as the standard agonist for the alpha 2B and alpha 2C receptors. […] NA stands for “not active” at concentrations less than 3-10 micromolar.
# [2] = molecular target: T2, Alpha 1A (Homo sapiens, UniProt P35348); assay: RSAT assay (Receptor Selection and Amplification Technology), Alpha 1A; settings: value in parentheses, ratio of maximal effect of drug to maximal effect of standard full agonist
# T2 sequence (P35348 1-466): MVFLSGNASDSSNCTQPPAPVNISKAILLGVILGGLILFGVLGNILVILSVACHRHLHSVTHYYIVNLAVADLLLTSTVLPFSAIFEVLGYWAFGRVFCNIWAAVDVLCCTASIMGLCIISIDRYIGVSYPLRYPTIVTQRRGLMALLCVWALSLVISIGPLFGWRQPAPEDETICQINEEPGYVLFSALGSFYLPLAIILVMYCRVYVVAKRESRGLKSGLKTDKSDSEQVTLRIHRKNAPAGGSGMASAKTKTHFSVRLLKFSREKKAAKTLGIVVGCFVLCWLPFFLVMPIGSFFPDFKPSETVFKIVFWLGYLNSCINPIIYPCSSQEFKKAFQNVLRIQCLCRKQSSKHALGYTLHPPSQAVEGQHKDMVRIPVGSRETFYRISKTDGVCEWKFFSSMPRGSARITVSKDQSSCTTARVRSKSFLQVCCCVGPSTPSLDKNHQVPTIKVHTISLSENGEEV
# Protocol: as §1, §2
# [3] = molecular target: T3, alpha 2C receptor (Homo sapiens, UniProt P18825); assay: RSAT assay (Receptor Selection and Amplification Technology), Alpha 2C; settings: for Intrinsic Activity efficacy Alpha 2C: value in parentheses, ratio of maximal effect to that of brimonidine
# T3 construct: expressed in transfected cells; host or cells: NIH-3T3
# T3 sequence (P18825 1-462): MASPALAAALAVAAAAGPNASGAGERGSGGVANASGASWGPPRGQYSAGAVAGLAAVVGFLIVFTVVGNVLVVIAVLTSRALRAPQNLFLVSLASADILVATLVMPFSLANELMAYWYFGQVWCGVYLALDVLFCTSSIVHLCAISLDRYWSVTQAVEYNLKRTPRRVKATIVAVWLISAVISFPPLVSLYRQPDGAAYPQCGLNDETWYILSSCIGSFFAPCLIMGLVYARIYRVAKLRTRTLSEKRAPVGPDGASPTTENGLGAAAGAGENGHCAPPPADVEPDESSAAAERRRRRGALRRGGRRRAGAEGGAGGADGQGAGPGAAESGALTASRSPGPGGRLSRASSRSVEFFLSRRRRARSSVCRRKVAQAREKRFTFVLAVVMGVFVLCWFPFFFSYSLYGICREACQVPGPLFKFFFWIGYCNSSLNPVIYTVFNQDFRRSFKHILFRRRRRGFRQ
# Protocol: as §1, §2
# [4] = RSAT, transfected NIH-3T3 cells with Gq/i5, Table 1, read-out: potency nM (EC50) Alpha 2B
# [5] = RSAT, transfected NIH-3T3 cells with Gq/i5, NA = not active at concentrations less than 10 micromolar, read-out: potency nM (EC50) Alpha 2C
SMILES,"EC50 [1, 4]","Intrinsic Activity efficacy Alpha 2B ([1]; RSAT, Table 1)",Intrinsic Activity efficacy Alpha 1A [2],"EC50 [3, 5]",Intrinsic Activity efficacy Alpha 2C ([3]; RSAT),EC50 [1],EC50 [3]
"Cc1cccc(C(Cc2ccncc2)/N=C2/NCCO2)c1C (centres unmarked) [Compound 6, 1-(2,3-Dimethylphenyl)-N-(oxazolidin-2-ylidene)-2-(pyridin-4-yl)ethanamine]",2.1 nM,1.1,0.88,80 nM,0.68,,
"COc1ccccc1C(Cc1cccnc1)/N=C1/NCCS1 (centres unmarked) [Compound 11, 1-(2-Methoxyphenyl)-2-(pyridin-3-yl)-N-(thiazolidin-2-ylidene)ethanamine]",17 nM,0.78,1.6,17 nM,0.86,,
"COc1ccccc1C(Cc1cccnc1)/N=C1/NCCO1 (centres unmarked) [Compound 13, 1-(2-Methoxyphenyl)-N-(oxazolidin-2-ylidene)-2-(pyridin-3-yl)ethanamine]",9 nM,0.62,1.12,23 nM,0.66,,
"c1ccc(C(Cc2cnccn2)/N=C2/NCCS2)cc1 (centres unmarked) [Compound 16, 1-Phenyl-2-(pyrazin-2-yl)-N-(thiazolidin-2-ylidene)ethanamine]",170 nM,0.97,1.1,100 nM,0.5,,
"Clc1cccc(C(Cc2ccncc2)/N=C2/NCCO2)c1Cl (centres unmarked) [Compound 17, 1-(2,3-Dichlorophenyl)-N-(oxazolidin-2-ylidene)-2-(pyridin-4-yl)ethanamine]",5 nM,1.15,1.3,30 nM,0.65,,
"Clc1cccc(C(Cc2ccncc2)/N=C2/NCCS2)c1Cl (centres unmarked) [Compound 18, 1-(2,3-Dichlorophenyl)-2-(pyridin-4-yl)-N-(thiazolidin-2-ylidene)ethanamine]",2 nM,1.1,1.0,21 nM,0.6,,
"Fc1cccc(C(Cc2ccncc2)/N=C2/NCCO2)c1 (centres unmarked) [Compound 24, 1-(3-Fluorophenyl)-N-(oxazolidin-2-ylidene)-2-(pyridin-4-yl)ethanamine]",14.3 nM,0.98,1.1,237 nM,0.93,,
"Fc1cccc(C(Cc2ccncc2)N=C2NCCN2)c1 (centres unmarked) [Compound 25, 1-(3-Fluorophenyl)-N-(imidazolidin-2-ylidene)-2-(pyridin-4-yl)ethanamine]",,0.68,0.97,,1.03,25 nM,16 nM
"c1ccc([C@@H](Cc2ccncc2)/N=C2/NCCO2)cc1 [Compound 30, R—N-(oxazolidin-2-ylidene)-1-phenyl-2-(pyridin-4-yl)ethanamine]",,1.16,1.1,,0.78,6 nM,24 nM
"c1ccc([C@@H](Cc2ccncc2)/N=C2/NCCS2)cc1 [Compound 31, R-1-phenyl-2-(pyridin-4-yl)-N-(thiazolidin-2-ylidene)ethanamine]",21 nM,0.64,1.1,6.1 nM,1.0,,
